Assay results published in BindingDB's records for doi:10.1021/jm00164a002 (Syntex Research, 1990).

Target: T1, Neutrophil elastase (Homo sapiens, UniProt P08246)
T1 sequence (P08246 whole entry): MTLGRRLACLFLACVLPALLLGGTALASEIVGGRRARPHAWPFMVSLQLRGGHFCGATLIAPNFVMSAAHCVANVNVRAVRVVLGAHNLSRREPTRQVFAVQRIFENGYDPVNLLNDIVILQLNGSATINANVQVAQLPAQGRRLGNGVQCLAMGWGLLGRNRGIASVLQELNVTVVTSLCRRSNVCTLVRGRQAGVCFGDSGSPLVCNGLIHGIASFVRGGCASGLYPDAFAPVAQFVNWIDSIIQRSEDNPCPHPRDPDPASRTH
Experiment: Component deacylation rate constant for interaction with human leukocyte elastase
Details: for kon: read-out: kon (M-1-s-1)

koff [s⁻¹] | kon [M⁻¹ s⁻¹] | Ki [nM] | SMILES
0.151 | 4900 | – | CNc1nc2cccc(C)c2c(=O)o1 [5-Methyl-2-methylamino-benzo[d][1,3]oxazin-4-one]
6.61e-05 | 347000 | – | C/C=C/c1cccc2nc(OCC)oc(=O)c12
0.00224 | 2570 | 794 | CCOC(=O)[C@H](C)Nc1nc2ccccc2c(=O)o1
7.41e-05 | 112 | – | CCC(C)CNc1nc2cccc(C)c2c(=O)o1 (configuration not stated)
0.000537 | 129000 | – | CCCCNc1nc2cccc(CC)c2c(=O)o1 [2-Butylamino-5-ethyl-benzo[d][1,3]oxazin-4-one]
0.000794 | 20900 | – | COc1cc(C)c2c(=O)oc(NC(C)C)nc2c1
– | 10000 | – | O=c1oc(-c2ccccc2)nc2ccccc12 [2-Phenyl-4H-3,1-benzoxazin-4-one (3)]
– | 2e+06 | – | CCSc1nc2c(C)cccc2c(=O)o1
0.00316 | 389 | – | O=c1oc(/C=C/c2ccccc2)nc2ccccc12
– | 20000 | – | CC(C)Cc1nc2ccccc2c(=O)o1
7.08e-05 | 309000 | – | CCCc1cccc2nc(OCC)oc(=O)c12
– | 10000 | 1590 | CCSc1nc2ccc(NC(C)=O)cc2c(=O)o1
– | 100000 | – | CCSc1nc2cc(OC)c(OC)cc2c(=O)o1
0.000537 | 14400 | 39.8 | NC(=O)[C@H](Cc1ccccc1)NC(=O)[C@@H]1CCCN1c1nc2ccccc2c(=O)o1
0.00309 | 58900 | – | CC(C)Nc1nc2ccccc2c(=O)o1 [2-Isopropylamino-benzo[d][1,3]oxazin-4-one]
– | – | 1.58 | Cc1cccc2nc(NC(C)C)oc(=O)c12 [2-Isopropylamino-5-methyl-benzo[d][1,3]oxazin-4-one]
0.00371 | 5010 | 794 | CCCC(C)Nc1nc2cccc(C)c2c(=O)o1 (configuration not stated)
0.000229 | 11000 | – | CC(C)C[C@H](NC(=O)[C@@H]1CCCN1c1nc2ccccc2c(=O)o1)C(=O)NCC(N)=O
– | 10000 | 100 | O=c1oc(C(F)(F)C(F)(F)C(F)(F)F)nc2ccccc12

koff [s⁻¹] | kon [M⁻¹ s⁻¹] | Ki [nM] | SMILES
0.00132 | 174 | – | CC(=O)NCc1nc2ccccc2c(=O)o1
0.00038 | 1200 | – | NC(=O)[C@H](Cc1ccccc1)Nc1nc2ccccc2c(=O)o1
– | 100000 | 159 | O=c1oc(C(F)(F)F)nc2ccccc12
0.00141 | 1.51e+06 | – | CCSc1nc2cccc(C)c2c(=O)o1
– | – | 100 | CCCNc1nc2ccccc2c(=O)o1 [2-Propylamino-benzo[d][1,3]oxazin-4-one]
– | – | 631 | Cc1cccc2c(=O)oc(NC(C)C)nc12
0.000389 | 2290 | 159 | COC(=O)[C@H](CC(C)C)Nc1nc2ccccc2c(=O)o1
– | 2000 | – | Cc1nc2c(N)cccc2c(=O)o1
0.024 | 24000 | – | CCc1cccc2c(=O)oc(NC(C)C)nc12
0.000324 | 15100 | – | CC(C)C[C@H](NC(=O)C1CCCN1c1nc2ccccc2c(=O)o1)C(N)=O (some centres not stated)
0.00182 | 2820 | – | CCCCNc1nc2cc(N)ccc2c(=O)o1
0.000355 | 251000 | – | CSc1nc2cccc(C)c2c(=O)o1
0.017 | 12600 | – | CCCNC(=O)Nc1ccc2c(=O)oc(NC(C)C)nc2c1
0.000479 | 1000 | – | CC(C)Nc1nc2cc(N(C)C)ccc2c(=O)o1
0.000977 | 151 | – | CC(C)CN(CC(C)C)c1nc2ccccc2c(=O)o1
0.00123 | 269 | 5010 | CCCCN(CCCC)c1nc2ccccc2c(=O)o1
0.000851 | 1900 | – | COC(=O)[C@H](Cc1ccc(O)cc1)Nc1nc2ccccc2c(=O)o1
1.51e-05 | 2570 | 6.31 | Cc1cc(C)c2c(=O)oc(NC(C)C)nc2c1
0.000339 | 56200 | 6.31 | CCCNc1nc2cccc(C)c2c(=O)o1 [5-Methyl-2-propylamino-benzo[d][1,3]oxazin-4-one]

koff [s⁻¹] | kon [M⁻¹ s⁻¹] | Ki [nM] | SMILES
1.41e-05 | 2880 | – | CCOc1nc2cc(N(C)C)ccc2c(=O)o1
– | 10000 | – | CC(C)(C)c1nc2ccccc2c(=O)o1
0.000129 | 102 | – | Cc1cc(N(C)C)cc2nc(NC(C)C)oc(=O)c12
0.00138 | 39800 | 39.8 | COC(=O)[C@@H](CC(C)C)Nc1nc2ccccc2c(=O)o1
– | – | 31600 | Cc1ccc2nc(C)oc(=O)c2c1
0.00562 | 7760 | 794 | CCC(CC)Nc1nc2cccc(C)c2c(=O)o1
0.00468 | 1e+07 | – | CCOc1nc2cccc(C(Br)Br)c2c(=O)o1
0.0123 | 5750 | 2000 | COc1cc2nc(SCc3ccccc3)oc(=O)c2cc1OC
– | 1e+06 | 159 | CCSc1nc2ccc(C)cc2c(=O)o1
1.12e-05 | 7080 | – | Cc1cccc2nc(OCC(C)C)oc(=O)c12
1.78e-05 | 229 | – | Cc1cc(N)cc2nc(NC(C)C)oc(=O)c12
– | – | 100 | O=c1oc(C(F)(F)C(F)(F)F)nc2ccccc12
0.00191 | 1120 | 1590 | O=c1oc(NCCc2ccccc2)nc2ccccc12
– | 1260 | – | COC(=O)[C@H](CC(C)C)NC(=O)[C@H](CC(C)C)Nc1nc2cc(C)cc(C)c2c(=O)o1
0.00371 | 129000 | 31.6 | Cc1cccc2nc(C(F)(F)F)oc(=O)c12
0.000182 | 646 | – | CCCc1cc(N(C)C)cc2nc(NC(C)C)oc(=O)c12
– | – | 79.4 | CCCCNc1nc2ccccc2c(=O)o1 [2-Butylamino-benzo[d][1,3]oxazin-4-one]
0.00759 | 6920 | 1000 | COc1cc2nc(SCc3c[nH]cn3)oc(=O)c2cc1OC
